Data reported in US20240190904A1, “Heteroaryl compounds as inhibitors of RIP2 kinase, composition and application thereof” (Accro Bioscience (HK) Limited, priority 2021, published 2024).

What was measured:
Type in all cases: in vivo
[1] = Pharmacokinetic evaluation in mice; conditions: for AUC / Vd / clearance / half-life / Cmax / Tmax: male, mouse, plasma
Protocol: The mice pharmacokinetic characteristics of compounds were tested by standard protocols. The candidate compounds were made into clear solution for single intravenous injection (i.v.) and suspension for oral administration (p.o.). Intravenous vehicle is 5% DMSO+95% Saline while oral vehicle is 0.5% CMCNa. The experiment used 48 male mice and 24 mice for intravenous at a dose of 2 mg/kg. Plasma samples were collected at 0 h (before dosing) and 0.083 h, 0.25 h, 0.5 h, 1 h, 2 h, 4 h, 8 h, 24 h after dosing. Another 24 mice were orally administrated with a dose of 10 mg/kg. Plasma samples were collected at 0 h (before dosing) and 0.25 h, 0.5 h, 1 h, 2 h, 4 h, 6 h, 8 h, 24 h after dosing.
(§1) Blood samples were placed in tubes containing K2-EDTA and stored on ice until centrifuged. The blood samples were centrifuged at 6800 g for 6 minutes at 2-8° C. within 1 h after collected and stored frozen at approximately −80° C.
(§2) The analytical results were confirmed using quality control samples for intra-assay variation. The accuracy of >66.7% of the quality control samples and 50% of all QC samples at each concentration level were between 80-120% of the known value(s).
(§3) Standard set of parameters including Area Under the Curve (AUC(0-t) and AUC(0-∞)), elimination half-live (T1/2), maximum plasma concentration (Cmax), time to reach maximum plasma concentration (Tmax) were calculated using noncompartmental analysis modules in FDA certified pharmacokinetic program Phoenix WinNonlin 7.0 (Pharsight, USA) by the Study Director.

[2] = Pharmacokinetic evaluation in rats; conditions: for AUC / Vd / clearance / half-life / Cmax / Tmax: male, plasma; for AUC / Vd / clearance / half-life / Cmax / Tmax / F: rat
Protocol: The rat pharmacokinetic characteristics of compounds were tested by standard protocols. The candidate compounds were made into clear solution for single intravenous injection (i.v.) and suspension for oral administration (p.o.). Intravenous vehicle is 5% DMSO+95% Saline while oral vehicle is 0.5% CMCNa. The experiment used 9 male rats and 3 rats for intravenous at a dose of 2 mg/kg. Plasma samples were collected at 0 h (before dosing) and 0.083 h, 0.25 h, 0.5 h, 1 h, 2 h, 4 h, 8 h, 24 h after dosing. 3 rats were orally administrated at a dose of 10 mg/kg and 3 rats were orally administrated at a dose of 100 mg/kg. Plasma samples were collected at 0 h (before dosing) and 0.25 h, 0.5 h, 1 h, 2 h, 4 h, 6 h, 8 h, 24 h after dosing.
as §1, §2, §3

[3] = Pharmacokinetic evaluation in beagle dog; conditions: for AUC / Vd / clearance / half-life / Cmax / Tmax: plasma
Protocol: The beagle dog pharmacokinetic characteristics of compounds were tested by standard protocols. The candidate compounds were made into clear solution for single intravenous injection (i.v.) and suspension for oral administration (p.o.). Intravenous vehicle is 5% DMSO+95% Saline while oral vehicle is 0.5% CMCNa. The experiment used 9 dogs. The dogs for intravenous at a dose of 1 mg/kg. Plasma samples were collected at 0 h (before dosing) and 0.083 h, 0.25 h, 0.5 h, 1 h, 2 h, 4 h, 8 h, 24 h after dosing. Three dogs were orally administrated at a dose of 5 mg/kg. Another 3 dogs were orally administrated at a dose of 15 mg/kg or 30 mg/kg. Plasma samples were collected at 0 h (before dosing) and 0.25 h, 0.5 h, 1 h, 2 h, 4 h, 6 h, 8 h, 24 h after dosing.
as §1, §2, §3

MDP induced peritonitis = assay: MDP (muramyl dipeptide) induced peritonitis, IL-6 by ELISA; conditions: mice, gavage, same dosage as GSK2983559 (10 mg/kg), 3 hours post MDP
Protocol: Mice were divided into four groups Including normal group, DMSO group, positive control group (GSK2983559) and compound group. Mice were dosed by gavage with either GSK2983559 at 10 mg/kg or candidate compounds at 3, 10 mg/kg 30 minutes prior to MDP injection (100 μg/mouse, ip). At 3 hours post MDP administration, the blood sample was collected from ocular vein after anesthesia. IL-6 levels were detected by ELISA.

AUC ([1]; iv, i.v. 2 mg/kg)	Vd ([1]; iv, i.v. 2 mg/kg)	clearance ([1]; iv, i.v. 2 mg/kg)	half-life ([1]; iv, i.v. 2 mg/kg)	AUC ([1]; po, p.o. 10 mg/kg)	Cmax ([1]; po, p.o. 10 mg/kg)	Tmax ([1]; po, p.o. 10 mg/kg)	F ([1]; p.o. 10 mg/kg)	AUC ([2]; iv, i.v. 2 mg/kg)	Vd ([2]; iv, i.v. 2 mg/kg)	clearance ([2]; iv, i.v. 2 mg/kg)	half-life ([2]; iv, i.v. 2 mg/kg)	AUC ([2]; po, p.o. 10 mg/kg)	Cmax ([2]; po, p.o. 10 mg/kg)	Tmax ([2]; po, p.o. 10 mg/kg)	Cmax ([2]; po, p.o. 100 mg/kg)	Tmax ([2]; po, p.o. 100 mg/kg)	F ([2]; p.o. 10 mg/kg)	Compound	plasma exposure and bioavailability in mice (in words) [1]	plasma exposure and bioavailability in rat (in words) [2]	other results
2990 ng·h/mL	1.1 L/kg	11.1 mL/min/kg	1.2 h	19200 ng·h/mL	9610 ng/mL	0.5 h	129%	7890 ng·h/mL	0.6 L/kg	4.2 mL/min/kg	1.7 h	18800 ng·h/mL	3320 ng/mL	3.3 h	68400 ng/mL	4.7 h	48%	COc1cc2nccc(Nc3ccc4scnc4c3)c2cc1P(C)(C)=O [A6]	excellent plasma exposure and bioavailability	excellent plasma exposure and bioavailability	AUC ([2]; po, p.o. 100 mg/kg): 729000 ng·h/mL; F ([2]; p.o. 100 mg/kg): 185%; plasma exposure and bioavailability in beagle dog (in words) [3]: excellent plasma exposure and bioavailability; F ([3]; p.o. 5 mg/kg): 131%; F ([3]; p.o. 30 mg/kg): 184%; AUC ([3]; iv, i.v. 1 mg/kg): 1640 ng·h/mL; Vd ([3]; iv, i.v. 1 mg/kg): 1.7 L/kg; clearance ([3]; iv, i.v. 1 mg/kg): 9.5 mL/min/kg; half-life ([3]; iv, i.v. 1 mg/kg): 2.1 h; AUC ([3]; po, p.o. 5 mg/kg): 10800 ng·h/mL; Cmax ([3]; po, p.o. 5 mg/kg): 2190 ng/mL; Tmax ([3]; po, p.o. 5 mg/kg): 0.7 h; AUC ([3]; po, p.o. 30 mg/kg): 90800 ng·h/mL; Cmax ([3]; po, p.o. 30 mg/kg): 8630 ng/mL; Tmax ([3]; po, p.o. 30 mg/kg): 2.7 h; inhibition of the level of IL-6 compared with positive control (in words) (MDP induced peritonitis): more effectively than positive control GSK2983559
22600 ng·h/mL	0.27 L/kg	1.5 mL/min/kg	2.2 h	89100 ng·h/mL	16200 ng/mL	0.8 h	79%	26500 ng·h/mL	0.19 L/kg	1.2 mL/min/kg	18 h	248000 ng·h/mL	20400 ng/mL	1.8 h	197000 ng/mL	24 h	187%	CP(C)(=O)c1cc2c(Nc3ccc4scnc4c3)ccnc2cc1OC(F)(F)F [A24]	excellent plasma exposure and bioavailability	excellent plasma exposure and bioavailability	F ([2]; p.o. 100 mg/kg): 244%; plasma exposure and bioavailability in beagle dog (in words) [3]: excellent plasma exposure and bioavailability; F ([3]; p.o. 5 mg/kg): 212%; F ([3]; p.o. 15 mg/kg): 88%; AUC ([3]; iv, i.v. 1 mg/kg): 3800 ng·h/mL; Vd ([3]; iv, i.v. 1 mg/kg): 0.7 L/kg; clearance ([3]; iv, i.v. 1 mg/kg): 4.3 mL/min/kg; half-life ([3]; iv, i.v. 1 mg/kg): 1.9 h; AUC ([3]; po, p.o. 5 mg/kg): 40300 ng·h/mL; Cmax ([3]; po, p.o. 5 mg/kg): 9720 ng/mL; Tmax ([3]; po, p.o. 5 mg/kg): 1.1 h; AUC ([3]; po, p.o. 15 mg/kg): 50400 ng·h/mL; Cmax ([3]; po, p.o. 15 mg/kg): 13300 ng/mL; Tmax ([3]; po, p.o. 15 mg/kg): 3 h; inhibition of the level of IL-6 compared with positive control (in words) (MDP induced peritonitis): more effectively than positive control GSK2983559
